One data set deals with THP-1 human monocytes. The conditions noted are these: 24 h.
Excerpt: (§1) The MTT assay is a colorimetric cytotoxicity assay that makes it possible to test cellular proliferation and vitality based on the efficiency of mitochondrial respiration. MTT (3-(4,5-dimethylthiazol-2-yl)-2,5-diphenyl tetrazolium bromide) is a tetrazolium salt that is reduced by the highly reducing environment in the mitochondria of living cells by the action of mitochondrial dehydrogenase. Reduction of MTT causes formation of crystals of formazan that give the characteristic purple coloration to the mitochondria of living cells. […] Thus, although it is a test that evaluates cellular respiration, the MTT assay is considered to be an excellent method for determining cellular vitality.
As preparation for the test, the cells were sown uniformly in 96-well plates at a density of 5×10^4 cells per well and incubated at 37° C., with 5% CO2, and simultaneously, the cells were treated following serial dilutions (1:2) in order to identify the maximum non-cytotoxic concentration for each component.
The treatment was carried out for 24 hours. At the end, after brief washing in PBS, 20 μl of MTT (stock 5 mg/ml) in PBS was added to the THP-1 cells for 2 hours at 37° C. At the end of the incubation time, after removal from the medium and washing in PBS, 100 μl of DMSO was added for solubilization of the formazan crystals. Spectrophotometric reading was performed with a microplate reader (Tecan Sunrise) at a wavelength of 570 nm. The cellular vitality was calculated by measuring the optical density of the concentrations tested relative to the control (untreated cells).
as §1, with “leads to” for “causes”, “impart” for “give”, “regarded as” for “considered to be”
As preparation for the test, the cells were sown uniformly in 96-well plates at a density of 5×10^4 cells per well and incubated at 37° C., with 5% CO2 and at the same time the cells were treated with serial dilutions (1:2) in order to identify the maximum non-cytotoxic concentration for each component.
The treatment was carried out for 24 hours. At the end, after brief washing in PBS, 20 μl of MTT (stock 5 mg/ml) in PBS was added to the THP-1 cells for 2 hours at 37° C. At the end of the incubation time, after removal from the medium and washing in PBS, 100 μl of DMSO was added to dissolve the formazan crystals. Spectrophotometric reading was performed with a microplate reader (Tecan Sunrise) at a wavelength of 570 nm. The cellular vitality was calculated by measuring the optical density of the concentrations tested relative to the control (untreated cells).

The subject of data set [1] is ROS produced by the THP-1 cells. The experiment in a line: ROS assay (H2DCF-DA, flow cytometry), Example 2. It counts as cell-based, human. As to conditions: 24 h treatment then H2O2 100 μM 2 h; concentrations indicated in Table 7. As to the method:
The antioxidant activity of the individual components and synergy between them was evaluated as efficiency of neutralization of the ROS produced by the THP-1 cells after application of an oxidizing agent: hydrogen peroxide (H2O2) at a concentration of 100 μM. The ROS were measured by the method described in Boulton S., Anderson A., Swalwell J., et al., 2011 Implications of using the fluorescent probes, dihydrorhodamine 123 and 2′,7′-dichlorodihydrofluorescein diacetate, for the detection of UV-A induced reactive oxygen species. […] The DCF produced is then quantified by reading with a flow cytometer and is proportional to the quantity of ROS present in the sample under examination. […]
After removal of the H2DCF-DA solution, the cells were washed, collected and the fluorescence of the DCF was measured by analysis with a Coulter Epics XL flow cytofluorimeter. At least ten thousand cells were analysed for each sample and the mean fluorescence intensity was quantified by the XL2 software of the instrument.
The parameter considered is MFI, mean fluorescence intensity, i.e. the geometric mean of the fluorescence intensity of the cells in which H2DCF-DA has been transformed into the fluorescein-treated DCF form, which is proportional to the amount of ROS per sample. […]
On the technique in general: In flow cytometry, cells or beads pass a laser one at a time.

Data set [2] relates to IL-1β. Put plainly: ELISA of IL-1β after LPS, Example 3. It counts as cell-based, human. As to the method:
(§2) Possible anti-inflammatory activity of the individual components and synergy between them in THP-1 cells was evaluated after 24 hours of treatment and stimulation with a known pro-inflammatory agent (LPS), measuring expression of IL-1β and TNFα using an ELISA kit (Thermo Fisher Scientific, Inc.).
(§3) As preparation for the test, the THP-1 cells were sown uniformly in a 96-well plate at a density of 5×10^4 cells/well and treated with the maximum concentrations found to be non-cytotoxic in the MTT assay; untreated cells were used as negative control. Treatment was carried out at 37° C. at 5% CO2 for 20 h; then the sample was stimulated with LPS (component of the bacterial outer membrane, considered to be an inflammatory agent) for 4 hours.
(§4) At the end of the treatment, the supernatants were collected and used for coating a pretreated ELISA plate, supplied with the kit.
(§5) For analysis of the expression of both markers under examination (IL-1β and TNFα), a special kit is used that is based on the “sandwich” ELISA system in which a 96-well plate is coated with a monoclonal antibody specific to the particular cytokine.
The standards, prepared on the basis of the instructions in the protocol and used for constructing the calibration curve, and the samples are added to the wells and the cytokine of interest binds the capture antibody immobilized on the bottom of the well. Next, the biotinylated anti-cytokine antibody is added to the wells so that the biotinylated antibody-antigen-antibody “sandwich” is formed. […] Addition of a solution of sulphuric acid turns the colour of the solution from blue to yellow, blocking the reaction and allowing accurate reading of the absorbance of the samples at 450 nm.
The absorbance was then read at 450 and 550 nm using a microplate reader (Tecan Sunrise). The values obtained from the reading at 550 nm were subtracted from those at 450 nm to correct the optical imperfections of the microplate. […]

Data set [3] relates to TNFα. Put plainly: ELISA of TNFα after LPS, Example 3. It counts as cell-based, human. As to the method: as §2, §3, §4, §5
The standards, prepared on the basis of the instructions in the protocol and used for constructing the calibration curve, and the samples are added to the wells and the cytokine of interest binds the capture antibody immobilized on the bottom of the well. […] Addition of a solution of sulphuric acid turns the colour of the solution from blue to yellow, blocking the reaction and allowing accurate reading of the absorbance of the samples at 450 nm.
The absorbance was then read at 450 and 550 nm using a microplate reader (Tecan Sunrise). The values obtained from the reading at 550 nm were subtracted from those at 450 nm to correct the optical imperfections of the microplate.
The possible anti-inflammatory action of the individual components of Xinepa and the possible synergy were evaluated by measuring the levels of TNFα following stimulation with LPS. […]

Data set [4] can be described thus: Solubility / dissolution of Xinepa and its ingredients.
The subject of a further data set is THP-1 cell line. As to conditions: curcumin (Sigma, commercial); Hsu et al. 2008; cited from earlier work.
The subject of another data set is THP-1 cells. The experiment in a line: MTT assay (Assay 0), cellular vitality. The conditions noted are these: positive controls at 100 μM. It counts as cell-based, human. As to the method:
The cells were kept in an incubator at 37° C. and 5% CO2 and sown every 3-4 days at a density of about 5×10^5 cells/ml.
This colorimetric assay is based on the transformation of tetrazolium salt MTT (yellow) to formazan (violet), by the reductase succinate-tetrazolium system, which belongs to the respiratory chain of the mitochondria and is only active in metabolically active cells. Briefly, the cells grown in a 96-well plate were incubated with the solution of MTT for 4 hours. […] The absorbance measured correlates directly with the number of live cells.
To exclude a possible toxic effect attributable to the incubation protocol selected, cellular vitality was quantified by the MTT assay.
(Tetrazolium assays rely on reduction of a dye to a coloured formazan, in cell work by metabolically active cells.)

Data set [5] deals with TNFα. The experiment in a line: ELISA assay (Assay 1a), release of TNFα. As to conditions: positive controls; LPS 1 μg/ml 2 h. It counts as cell-based, human. A general note: An ELISA detects its analyte on a solid surface through an enzyme-linked reagent.
The subject of data set [6] is IL-1β. The experiment in a line: ELISA assay (Assay 1a), release of IL-1β. It counts as cell-based, human. As to conditions: positive controls; LPS 1 μg/ml 2 h.
The subject of data set [7] is reactive oxygen species (ROS) in THP-1 cells. Put plainly: Intracellular levels of ROS (Assay 2), CellROX Deep Red. It counts as cell-based, human. The conditions noted are these: positive control; 100 mM H2O2 2 h; not significantly different from its vehicle control. As to the method: The operating principle of the probe is based on the fact that it is not fluorescent in the reduced state, whereas following oxidation it develops a fluorescent signal with excitation peak at 640 nm and emission peak at 665 nm. Briefly, at the end of the period of stimulation with H2O2, the cells were incubated with CellROX® Deep Red Reagent at a final concentration of 5 μM in the medium at 37° C. for 30 min. The nuclei were labelled with Hoechst33342 and the fluorescences of both channels (CellROX® Deep Red and DAPI) were read on the GloMax plate fluorometer (Promega Italy). The fluorescence signals relating to the ROS were normalized for the signal of Hoechst33342 to cancel the variability in the fluorescence signal read due to the number of cells present in each well.
The same plates were then also acquired in the confocal microscope for the purpose of obtaining representative images relating to quantifications of the various treatments.

Where [8] appears, read: 24-hour treatment and stimulation with LPS.
Where [9] appears, read: relative to stimulated untreated cells (Ctrl + LPS = 100).

“Also recorded” adds a separate entry of the source. Like-named read-outs stand apart in the source and are kept apart here.

For the molecule `CC(=O)O[C@H](CC(=O)[O-])C[N+](C)(C)C` [Component C], the “Cellular vitality (%)” value worked out at 102.221% with THP-1 human monocytes (N-Acetyl-L-carnitine 0.25 mg/ml); 97.615% in the data set on THP-1 human monocytes (N-Acetyl-L-carnitine 0.5 mg/ml); 90.355% in the data set with THP-1 human monocytes (N-Acetyl-L-carnitine 1 mg/ml); 91.422% in the data set on THP-1 human monocytes (N-Acetyl-L-carnitine 2 mg/ml); 60.848% in the data set on THP-1 human monocytes (N-Acetyl-L-carnitine 4 mg/ml). In the data set on THP-1 human monocytes (components A, B, C tested individually (lipoic acid, vitamin C, vitamin E acetate together as component B), mortality not greater than 30%), the “Maximum non-cytotoxic concentration” value amounted to 2 mg/mL. For the same molecule, the “Non-cytotoxic concentration” value in the data set on THP-1 human monocytes (each component when tested together (A + B + C)) was found to be 0.01 mg/mL. For the same molecule, the “levels of ROS” value in data set [1] is listed as “comparable to those of the positive control”. Besides, in the data set on IL-1β [2] (setting [8]), the “levels of IL-1β vs stimulated control” value is recorded as “increase”. Besides, the “IL-1β” value in the data set on IL-1β [2] (24 h treatment at non-cytotoxic concentrations incl. LPS 4 h, Ctrl + LPS 4.84) worked out at 4.98 pg/mL. Further, the “IL-1β (%)” value in the data set with IL-1β [2] (setting [9]) is listed as 102.91%. Also, the “levels of TNFα vs stimulated control” value with TNFα [3] (setting [8]) is given as “levels lower than the stimulated control”. The “TNFα” value in the data set with TNFα [3] (24 h treatment at non-cytotoxic concentrations, LPS 4 h, Ctrl + LPS 424.12) amounted to 386.98 pg/mL. In addition, the “TNFα (%)” value in the data set on TNFα [3] (setting [9]) is 91.24%. In addition, the “dissolution in complete medium” value in data set [4] (RPMI medium with 10% FBS, L-glutamine 2 mM and antibiotics) is listed as “did not cause problems in dissolution; also recorded: did not cause problems of dissolution”.

Take `O=C(O)CCCCC1CCSS1` (stereo not drawn) [Lipoic acid, Alpha-lipoic acid]: the “Maximum non-cytotoxic concentration” value with THP-1 human monocytes (human) stood at 0.3750 mg/mL.

As to `COc1cc(/C=C/C(=O)CC(=O)/C=C/c2ccc(O)c(OC)c2)ccc1O` [curcumin, (1E,6E)-1,7-bis(4-hydroxy-3-methoxyphenyl)-hepta-1,6-diene-3,5-dione], in the data set on THP-1 cell line, the “non-cytotoxic concentration found for curcumin” value was 10 µM.

`CC(C)Cc1ccc(C(C)C(=O)O)cc1` (stereo not shown) [ibuprofen]: the “toxicity on the cells (MTT)” value in the data set on THP-1 cells was “did not identify any effect of toxicity”. For the same molecule, in the data set with TNFα [5], the “release of TNFα relative to control” value is “did not cause any reduction”. The “release of IL-1β relative to control” value with IL-1β [6] is reported as “did not have any effect”.

Consider `CS(=O)(=O)Nc1ccc([N+](=O)[O-])cc1Oc1ccccc1` [nimesulide], for which, in the data set on THP-1 cells, the “toxicity on the cells (MTT)” value is on record as “did not identify any effect of toxicity”. Moreover, the “release of TNFα relative to control” value in the data set with TNFα [5] is “showed anti-inflammatory action”. Moreover, in the data set with IL-1β [6], the “release of IL-1β relative to control” value is “effective in reducing the release of IL-1β”.

`Cc1cc2nc3c(=O)[nH]c(=O)nc-3n(C[C@H](O)[C@H](O)[C@H](O)CO)c2cc1C` [vitamin B2, riboflavin]: the “solubility of individual ingredients” value in data set [4] (water vs alcohols or organic solvents) is “soluble in water but not in alcohols”.

On to tocopherol [vitamin E], for which the “antioxidant action (ROS levels)” value in [7] is reported as “partial antioxidant action”.
